Results taken from patent US8742106B2 (Novartis AG, priority 2009, dated 2014).

Tests used:
human orexin 1 receptors = human orexin 1 receptors (Homo sapiens (Human), UniProt O43613); assay: Calcium Accumulation in Cells (FLIPR), antagonism of orexin A; format: cell-based; settings: for inhibition at 10 µM: measured at a concentration of 10 μM of compound, read-out: FLIPR hOx1R % inhibition value; for Ki: antagonism of orexin A, Cheng-Prusoff corrected, read-out: FLIPR hOx1R Ki
Procedure: (§1) Calcium Accumulation in Cells (FLIPR):
Cells expressing human orexin 1 or human orexin 2 receptors, were seeded at 8,000 cells/well in 384 well black-walled clear bottom, poly-D-lysine coated plates. After 24 h, the medium was removed and cells were washed once with phosphate buffered saline and serum-deprived overnight in assay buffer (130 mM NaCl, 5.4 mM KCl, 1.8 mM CaCl2, 0.8 mM MgSO4, 0.9 mM NaH2PO4, 25 mM glucose, 20 mM HEPES, pH 7.4) containing bovine serum albumin (1% w/v).
On the day of the experiment, the cells seeded in black plates were treated with assay buffer containing the Ca^2+ sensitive fluorescent dye Fluo4-AM (2 μM), and probenecid (0.1 mM). After 1 h plates were washed twice with, and resuspended in, assay buffer containing probenecid (0.1 mM) using a multi plate washer. The plates were placed into a FLIPR II (Fluorometric Imaging Plate Reader, Molecular Devices, Sunnyvale, Calif., USA) and baseline fluorescence (fluorescence light units, FLU) was measured (5 measurements, 2 S each; laser excitation 488 nm at 0.6-1 W, CCD camera exposure 0.4 s) before addition of buffer alone (basal) or containing test compounds (either compound of formula (I) or (I′) alone, agonist alone or agonist in the presence of various concentrations of compounds of formula (I) or (I′)). Fluorescence measurements were then continued every 1 S for 120 S followed by every 4 S for 240 S.
(§2) The measurements were typically made in two sequences:
(§3) In the first round, compounds of formula (I) or (I′) were tested alone, to detect possible agonist activity. Compounds of formula I or I′ were tested usually in a concentration range from 10^−9 M to 10^−5 M.
(§4) In the second round, performed one hour later (to allow for equilibration), Orexin A was tested either in the absence (calibration curves, Orexin A agonist controls) or in the presence of compounds of formula (I) or (I′) to determine antagonism.

human orexin 2 receptors = human orexin 2 receptors (Homo sapiens (Human), UniProt O43614); assay: as above; format: cell-based; settings: for inhibition at 10 µM: measured at a concentration of 10 μM of compound, read-out: FLIPR hOx2R % inhibition value; for Ki: antagonism of orexin A, Cheng-Prusoff corrected, read-out: FLIPR hOx2R Ki
Procedure: as §1
Cells expressing human orexin 1 or human orexin 2 receptors, were seeded at 8,000 cells/well in 384 well black-walled clear bottom, poly-D-lysine coated plates.
On the day of the experiment, the cells seeded in black plates were treated with assay buffer containing the Ca^2+ sensitive fluorescent dye Fluo4-AM (2 μM), and probenecid (0.1 mM). After 1 h plates were washed twice with, and resuspended in, assay buffer containing probenecid (0.1 mM) using a multi plate washer. […] Fluorescence measurements were then continued every 1 S for 120 S followed by every 4 S for 240 S.
as §2, §3, §4

Sequence of human orexin 2 receptors (O43614 whole entry): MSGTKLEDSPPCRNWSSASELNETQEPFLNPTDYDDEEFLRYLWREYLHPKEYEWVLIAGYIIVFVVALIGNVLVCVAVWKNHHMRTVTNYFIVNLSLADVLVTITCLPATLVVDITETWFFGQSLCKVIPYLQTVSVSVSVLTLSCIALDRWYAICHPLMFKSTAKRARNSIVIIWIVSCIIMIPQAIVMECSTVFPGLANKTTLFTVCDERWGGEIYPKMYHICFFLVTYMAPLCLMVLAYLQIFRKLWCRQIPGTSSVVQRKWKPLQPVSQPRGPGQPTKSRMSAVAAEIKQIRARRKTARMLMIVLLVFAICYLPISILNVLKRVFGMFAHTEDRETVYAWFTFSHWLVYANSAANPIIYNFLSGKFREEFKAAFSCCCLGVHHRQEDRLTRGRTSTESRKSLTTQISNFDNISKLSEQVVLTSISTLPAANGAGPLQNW
Sequence of human orexin 1 receptors (O43613 whole entry): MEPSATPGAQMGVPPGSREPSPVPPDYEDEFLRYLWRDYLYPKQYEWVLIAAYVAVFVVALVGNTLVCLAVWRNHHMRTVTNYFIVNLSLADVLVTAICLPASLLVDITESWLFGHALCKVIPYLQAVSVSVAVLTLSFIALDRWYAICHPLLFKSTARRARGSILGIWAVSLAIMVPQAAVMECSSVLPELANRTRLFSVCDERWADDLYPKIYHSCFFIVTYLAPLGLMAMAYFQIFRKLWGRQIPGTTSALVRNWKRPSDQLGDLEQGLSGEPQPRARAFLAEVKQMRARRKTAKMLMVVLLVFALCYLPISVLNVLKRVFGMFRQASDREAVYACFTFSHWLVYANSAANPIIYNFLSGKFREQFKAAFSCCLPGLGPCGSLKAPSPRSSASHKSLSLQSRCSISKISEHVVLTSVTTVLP

## CC(Oc1cc(C(F)(F)F)c2c(-c3ccccc3)nn(C)c2n1)C(=O)N[C@@H](C)c1ccccc1 (single isomer, unassigned) [Example 1.74]
Human orexin 1 receptors
  inhibition at 10 µM: < 10%
Human orexin 2 receptors
  inhibition at 10 µM: < 10%

## COc1ccc2c(c1)CC[C@@H]2NC(=O)C(C)Oc1cc(C)c2c(C3CC3)nn(C)c2n1 (single isomer, unassigned) [Example 6.72, (S or R)-2-(3-cyclopropyl-1,4-dimethyl-1H-pyrazolo[3,4-b]pyridin-6-yloxy)-N-((S)-5-methoxy-2,3-dihydro-1H-inden-1-yl)propanamide]
Human orexin 1 receptors
  inhibition at 10 µM: 46%
Human orexin 2 receptors
  inhibition at 10 µM: 48%

## COc1ccc([C@H](C)NC(=O)C(C)Oc2cc(C)c3c(C4CC4)nn(C)c3n2)cc1 (single isomer, unassigned) [Example 6.73, (S or R)-2-(3-cyclopropyl-1,4-dimethyl-1H-pyrazolo[3,4-b]pyridin-6-yloxy)-N-((S)-1-(4-methoxyphenyl)ethyl)propanamide]
Human orexin 1 receptors
  inhibition at 10 µM: 43%
Human orexin 2 receptors
  inhibition at 10 µM: 29%

## C[C@H](NC(=O)COc1cc(C(F)(F)F)c2c(-c3ccccc3)n[nH]c2n1)c1ccccc1 [Example 1.2, (S)-2-(3-phenyl-4-(trifluoromethyl)-1H-pyrazolo[3,4-b]pyridin-6-yloxy)-N-(1-phenylethyl)acetamide]
Human orexin 1 receptors
  Ki: 200 nM
Human orexin 2 receptors
  Ki: 43 nM

## CCOc1ccccc1CNC(=O)COc1cc(C(F)(F)F)c2c(-c3ccccc3)nn(C)c2n1 [Example 1.7, N-(2-ethoxybenzyl)-2-(1-methyl-3-phenyl-4-(trifluoromethyl)-1H-pyrazolo[3,4-b]pyridin-6-yloxy)acetamide]
Human orexin 1 receptors
  Ki: 1020 nM
Human orexin 2 receptors
  Ki: 337 nM

## Cn1nc(-c2ccccc2)c2c(C(F)(F)F)cc(OCC(=O)NCc3cccc(F)c3)nc21 [Example 1.8, N-(3-fluorobenzyl)-2-(1-methyl-3-phenyl-4-(trifluoromethyl)-1H-pyrazolo[3,4-b]pyridin-6-yloxy)acetamide]
Human orexin 1 receptors
  inhibition at 10 µM: 39%
Human orexin 2 receptors
  Ki: 1620 nM

## Cn1nc(-c2ccccc2)c2c(C(F)(F)F)cc(OCC(=O)NC3CCCCC3)nc21 [Example 1.9, N-cyclohexyl-2-(1-methyl-3-phenyl-4-(trifluoromethyl)-1H-pyrazolo[3,4-b]pyridin-6-yloxy)acetamide]
Human orexin 1 receptors
  inhibition at 10 µM: 32%
Human orexin 2 receptors
  Ki: 2500 nM

## Cn1nc(-c2ccccc2)c2c(C(F)(F)F)cc(OCC(=O)NC3CCCC3)nc21 [Example 1.10, N-cyclopentyl-2-(1-methyl-3-phenyl-4-(trirfluoromethyl)-1H-pyrazolo[3,4-b]pyridin-6-yloxy)acetamide]
Human orexin 1 receptors
  Ki: 650 nM
Human orexin 2 receptors
  Ki: 324 nM

## Cn1nc(-c2ccccc2)c2c(C(F)(F)F)cc(OCC(=O)NCc3ccc(Cl)cc3)nc21 [Example 1.11, N-(4-chlorobenzyl)-2-(1-methyl-3-phenyl-4-(trifluoromethyl)-1H-pyrazolo[3,4-b]pyridin-6-yloxy)acetamide]
Human orexin 1 receptors
  Ki: 2010 nM
Human orexin 2 receptors
  Ki: 251 nM

## Cn1nc(-c2ccccc2)c2c(C(F)(F)F)cc(OCC(=O)NCc3ccccc3)nc21 [Example 1.12, N-benzyl-2-(1-methyl-3-phenyl-4-(trifluoromethyl)-1H-pyrazolo[3,4-b]pyridin-6-yloxy)acetamide]
Human orexin 1 receptors
  Ki: 2500 nM
Human orexin 2 receptors
  Ki: 1380 nM

## Cc1cc(OCC(=O)NCc2ccccc2Cl)nc2c1c(-c1ccccc1)nn2C [Example 1.14, N-(2-chlorobenzyl)-2-(1,4-dimethyl-3-phenyl-1H-pyrazolo[3,4-b]pyridin-6-yloxy)acetamide]
Human orexin 1 receptors
  Ki: 422 nM
Human orexin 2 receptors
  inhibition at 10 µM: 33%

## Cc1cc(OCC(=O)NCc2ccc3c(c2)OCO3)nc2c1c(-c1ccccc1)nn2C [Example 1.15, N-(benzo[d][1,3]dioxol-5-ylmethyl)-2-(1,4-dimethyl-3-phenyl-1H-pyrazolo[3,4-b]pyridin-6-yloxy)acetamide]
Human orexin 1 receptors
  inhibition at 10 µM: 44%
Human orexin 2 receptors
  inhibition at 10 µM: 39%

## C[C@H](NC(=O)COc1cc(C(F)(F)F)c2c(-c3ccccn3)nn(C)c2n1)c1ccccc1 [Example 1.21, (S)-2-(1-methyl-3-(pyridin-2-yl)-4-(trifiuoromethyl)-1H-pyrazolo[3,4-b]pyridin-6-yloxy)-N-(1-phenylethyl)acetamide]
Human orexin 1 receptors
  inhibition at 10 µM: 38%
Human orexin 2 receptors
  inhibition at 10 µM: 29%

## C[C@H](NC(=O)COc1cc(C(F)(F)F)c2c(-c3ccncc3)nn(C)c2n1)c1ccccc1 [Example 1.25, (S)-2-(1-methyl-3-(pyridin-4-yl)-4-(trifluoromethyl)-1H-pyrazolo[3,4-b]pyridin-6-yloxy)-N-(1-phenylethyl)acetamide]
Human orexin 1 receptors
  inhibition at 10 µM: 54%
Human orexin 2 receptors
  inhibition at 10 µM: 52%

## Cc1ccccc1-c1nn(C)c2nc(OCC(=O)N[C@@H](C)c3ccccc3)cc(C(F)(F)F)c12 [Example 1.26, (S)-2-(1-methyl-3-o-tolyl-4-(trifluoromethyl)-1H-pyrazolo[3,4-b]pyridin-6-yloxy)-N-(1-phenylethyl)acetamide]
Human orexin 1 receptors
  Ki: 218 nM
Human orexin 2 receptors
  Ki: 183 nM

## C[C@@H](NC(=O)COc1cc(C(F)(F)F)c2c(-c3ccccc3)nn(C)c2n1)c1ccccc1 [Example 1.27, (R)-2-(1-methyl-3-phenyl-4-(trifluoromethyl)-1H-pyrazolo[3,4-b]pyridin-6-yloxy)-N-(1-phenylethyl)acetamide]
Human orexin 1 receptors
  inhibition at 10 µM: 33%
Human orexin 2 receptors
  inhibition at 10 µM: 35%

## Cc1ccc(C(C)NC(=O)COc2cc(C(F)(F)F)c3c(-c4ccccc4)nn(C)c3n2)o1 (centres unmarked) [Example 1.28, 2-(1-methyl-3-phenyl-4-(trifluoromethyl)-1H-pyrazolo[3,4-b]pyridin-6-yloxy)-N-(1-(5-methylfuran-2-yl)ethyl)acetamide]
Human orexin 1 receptors
  Ki: 941 nM
Human orexin 2 receptors
  Ki: 411 nM

## CC(NC(=O)COc1cc(C(F)(F)F)c2c(-c3ccccc3)nn(C)c2n1)c1ccccn1 (centres unmarked) [Example 1.29, 2-(1-methyl-3-phenyl-4-(trifluoromethyl)-1H-pyrazolo[3,4-b]pyridin-6-yloxy)-N-(1-(pyridin-2-yl)ethyl)acetamide]
Human orexin 1 receptors
  Ki: 2670 nM
Human orexin 2 receptors
  inhibition at 10 µM: 44%

## CC(NC(=O)COc1cc(C(F)(F)F)c2c(-c3ccccc3)nn(C)c2n1)c1cccnc1 (centres unmarked) [Example 1.30, 2-(1-methyl-3-phenyl-4-(trifluoromethyl)-1H-pyrazolo[3,4-b]pyridin-6-yloxy)-N-(1-(pyridin-3-yl)ethyl)acetamide]
Human orexin 1 receptors
  Ki: 970 nM
Human orexin 2 receptors
  Ki: 582 nM

## CC(NC(=O)COc1cc(C(F)(F)F)c2c(-c3ccccc3)nn(C)c2n1)c1ccncc1 (centres unmarked) [Example 1.31, 2-(1-methyl-3-phenyl-4-(trifluoromethyl)-1H-pyrazolo[3,4-b]pyridin-6-yloxy)-N-(1-(pyridin-4-yl)ethyl)acetamide]
Human orexin 1 receptors
  Ki: 2110 nM
Human orexin 2 receptors
  inhibition at 10 µM: 40%

## COc1cccc(CNC(=O)COc2cc(C(F)(F)F)c3c(-c4ccccc4)nn(C)c3n2)c1 [Example 1.33, N-(3-methoxybenzyl)-2-(1-methyl-3-phenyl-4-(trifluoromethyl)-1H-pyrazolo[3,4-b]pyridin-6-yloxy)acetamide]
Human orexin 1 receptors
  Ki: 1650 nM
Human orexin 2 receptors
  Ki: 427 nM

## C[C@H](NC(=O)COc1cc(C(F)(F)F)c2c(-c3cccnc3)nn(C)c2n1)c1ccccc1 [Example 1.34, (S)-2-(1-methyl-3-(pyridin-3-yl)-4-(trifluoromethyl)-1H-pyrazolo[3,4-b]pyridin-6-yloxy)-N-(1-phenylethyl)acetamide]
Human orexin 1 receptors
  Ki: 869 nM
Human orexin 2 receptors
  Ki: 323 nM

## Cc1n[nH]c(C)c1[C@@H](C)NC(=O)COc1cc(C(F)(F)F)c2c(-c3ccccc3)nn(C)c2n1 [Example 1.62, (R)-N-(1-(3,5-dimethyl-1H-pyrazol-4-yl)ethyl)-2-(1-methyl-3-phenyl-4-(trifluoromethyl)-1H-pyrazolo[3,4-b]pyridin-6-yloxy)acetamide]
Human orexin 2 receptors
  inhibition at 10 µM: 36%

## COc1ccc([C@H](C)NC(=O)COc2cc(C)c3c(-c4cc(OC)cc(OC)c4)nn(C)c3n2)cc1 [Example 6.1, (S)-2-((3-(3,5-dimethoxyphenyl)-1,4-dimethyl-1H-pyrazolo[3,4-b]pyridin-6-yl)oxy)-N-(1-(4-methoxyphenyl)ethyl)acetamide]
Human orexin 2 receptors
  Ki: 185 nM

## COc1ccc2c(c1)CC[C@H]2NC(=O)COc1cc(C)c2c(C3CC3)nn(C)c2n1 [Example 6.4, (R)-2-(3-cyclopropyl-1,4-dimethyl-1H-pyrazolo[3,4-b]pyridin-6-yloxy)-N-(5-methoxy-2,3-dihydro-1H-inden-1-yl)acetamide]
Human orexin 1 receptors
  Ki: 1760 nM
